The text below walks through data of ChEMBL document CHEMBL1141350, “Pentaketides relating to aspinonene and dihydroaspyrone from a marine-derived fungus, Aspergillus ostianus” (2007).

One assay relates to Staphylococcus aureus. The assay can be described thus: Antibacterial activity against methicillin-resistant Staphylococcus aureus at 100 ug/disc. It counts as functional, organism-based.
A further assay relates to L1210. The assay can be described thus: Cytotoxicity against mouse L1210 cells at 25 ppm. The class given is functional.

Active and inactive are the calls of the source. The calls are words filed in the database; no cut-off is given here.

As to `CC(=O)/C=C/C(=C/[C@H](C)O)CO`, in the assay on Staphylococcus aureus, the outcome was inactive. As to `C[C@H](O)CC1=C[C@H](O)[C@@H](C)OC1=O`, the outcome with Staphylococcus aureus was inactive. `C[C@H](O)/C=C(/C=C/[C@@H](C)O)CO`: the result in the assay on Staphylococcus aureus and in the assay with L1210 was inactive. Turning to `C[C@H](O)/C=C/[C@@](O)(CO)[C@@H]1O[C@H]1C` [ASPINONENE], the result with Staphylococcus aureus was inactive. In the assay with L1210, this compound gave an inhibition at 25 ppm of 27%. With `C[C@H](O)/C=C(/C=C/[C@H](C)O)CO`, the outcome with Staphylococcus aureus was inactive. In turn, `CO[C@](C(=O)O[C@@H](C)CC1=C[C@H](O)[C@@H](C)OC1=O)(c1ccccc1)C(F)(F)F` returned an inhibition at 25 ppm in the assay on L1210 of 25%.

The term inhibition denotes the change of the read-out against control, counted positive when it falls.
